Measurements published in patent publication US20090098050A1, “CALCIUM BINDING PEPTIDES” (THE REGENTS OF THE UNVERSITY OF CALIFORNIA, priority 2005, published 2009).

Legend:
[1] = Nucleation of hydroxyapatite on tooth enamel and dentin (SEM); parameters: species or system human; details: 12.5 μM peptide, SBFn 4 hours then SBFg
Method: FIG. 5: Nucleation of hydroxyapatite on enamel (top) and dentin (bottom) surfaces. Surfaces were prepared and treated as described in Example 6 and as indicated by the labels, followed by imaging using Scanning Electron Microscopy. The upper group (top two rows) represents enamel samples, while the lower group (bottom two rows) represents dentin samples. Within each group, the top row represents samples that were not demineralized prior to treatment, and the bottom row represents samples that were demineralized by treatment with phosphoric acid. Scanning Electron Micrographs are shown, scale bars=[…]. Left column: samples that were not exposed to any treatment prior to nucleation and crystal growth. Center column: samples that were exposed to buffer only prior to nucleation and crystal growth. Right column: samples that were exposed to 12.5 μM 8DSS peptide prior to nucleation and crystal growth. Crystal growth indicates early nucleation. To determine whether applying DSS to various preparations of tissue promoted HA nucleation, which could ultimately lead to tissue remineralization, sagittally sectioned adult human teeth (obtained after extraction during normal clinical practice) were polished using a Streurs grinding wheel, and prepared for nucleation experiments. […]

[2] = Remineralization of demineralized rat femur (SEM); details: peptide one hour, then Quell Desensitizer
Method: FIG. 7: Mineralization of bone. Rat femurs were obtained from sacrificed animals under a shared tissue protocol. Samples were demineralized, rinsed, and ultrasonicated to remove debris. Test samples were treated with 8DSS peptide for one hour, rinsed, remineralized using Quell Desensitizer as described in Example 8, then imaged by Scanning Electron Microscopy. SEM images are shown. Top: untreated sample, showing the surface of the bone completely covered by mineral. Center: demineralized sample, showing Haversian canals exposed by removal of the mineral layer. Bottom: Bone treated with 8DSS and Quell Desensitizer (an aqueous CaCl2/K2HPO4 solution), showing reestablishment of the mineral layer.
In order to determine whether the remineralization results observed for tooth tissues can be extended to bone, rat femurs were obtained from sacrificed animals under a shared tissue protocol. Test samples were demineralized with 19% EDTA gel for one hour, followed by immersion in deionized water and ultrasonication to remove excess debris. Test samples were then treated with 8DSS peptide for one hour, rinsed, and half of the samples were remineralized using Quell Desensitizer (Pentron Clinical Technologies, LLC) as described in Example 5. All samples were then prepared for SEM and imaged as in Example 5. […] In the demineralized sample, the Haversian canals were clearly exposed (FIG. 7, middle panel). […]

8DSS: peptide containing eight Asp-Ser-Ser (DSS) repeats, SEQ ID NO:15 (DSSDSSDSSDSSDSSDSSDSSDSS; calcium binding peptide containing eight DSS repeats, 8DSS)
Crystal growth (nucleation) on demineralized enamel [1]: significant crystal growth | Crystal growth (nucleation) on nondemineralized dentin [1]: most significant growth | Remineralization of demineralized bone surface [2]: the mineral surface was restored and occlusion of the canals was observed
